These results are taken from patent US20250326748A1, “COMPOUNDS AND METHODS FOR MODULATING SPLICING” (REMIX THERAPEUTICS INC., priority 2022, published 2025).

One series deals with Target C. Put plainly: HiBiT protein abundance assay, Target C (K562 HiBiT knock-in). In kind it is cell-based, human. Particulars: HiBiT knock-in cells, 24 hours. The method, then:
(§1) Cells were maintained in IMDM with 10% FBS. Before the assay, cells were diluted with […] growth media (IMDM+1% FBS media) and were seeded in a 384-well plate at a density of 10000 cells/well (for each cell line listed in Table 6). Each compound was prepared as a 10-point 3-old serial dilution in DMSO with the top dose at a final concentration of 10 μM in the well. Unmodified K562 cells were added at the previously specified density with DMSO to serve as an assay baseline and positive control (PC) and DMSO only with the respective modified cell lines was added to the negative control (NC) columns. Final DMSO concentration was kept at or below 0.25%. Treated cell plates were placed in an incubator at 37° C. with 5% CO2 for 24 hours. After 24 hours, 25 μL of Complete HiBit Lytic reagent was added to each well at room temperature (e.g. one plate requiring 10 ml Lytic Buffer, 100 μL LgBiT Protein, 200 μL Lytic Substrate), shaken for 5 minutes at 600 RPM, then left to sit for 10 minutes for signal to stabilize before reading on a Spark Cyto plate reader (Tecan) with a 500 ms measurement time.
(§2) To determine compound effects on protein abundance of each target in Table 6, the percent response for each respective cell line was calculated at each compound concentration as follows:
(§3) For the normalized response at each concentration, a four-parameter logistical regression was fit to the data and the response was interpolated at the 50% value to determine a concentration for protein abundance at 50% (IC50) the untreated control.

For a further series, the system named is K562 cells. Put plainly: Cell viability, Cell Titer Glo 2.0 assay, K562. The conditions noted are these: 72 hours.
Another series concerns HiBiT-tagged MYB protein. Put plainly: HiBiT protein abundance assay, MYB (K562 HiBiT knock-in). In kind it is cell-based, human. Particulars: HiBiT knock-in cells, 24 hours. The procedure: (§4) Compounds described herein were used to screen for effects on quantitative protein abundance using a HiBit assay system (Promega). Quantitative protein abundance was determined by measuring the protein levels of HiBit-tagged protein targets expressed in cell culture via luminescence using the Nano-Glo HiBiT Lytic Detection System, which uses a split complementation assay format to reconstitute NanoBiT enzyme to generate a luminescent signal. A protein abundance assay was developed such that endogenous protein targets could be modified with the HiBiT peptide tag and their abundance could be assessed after compound treatment. Briefly, K562 cell lines containing a HiBiT-modification were treated with various compounds described herein (e.g., compounds of Formulas (I), or (II)). After treatment for 24 hours, the protein abundance of a specific target was determined by measuring luminescence.
(§5) • Promega Nano-Glo HiBiT Lytic Detection System (cat #N3030) • Corning 384-well TC-treated microplates (cat #3570)
as §1, §2, §3

The subject of a further series is HiBiT-tagged HTT protein. Put plainly: HiBiT protein abundance assay, HTT (K562 HiBiT knock-in). The conditions noted are these: HiBiT knock-in cells, 24 hours. In kind it is cell-based, human. The procedure:
as §4, §5, §1, §2, §3

The next series concerns SMN2 mRNA. Put plainly: Splicing RT-qPCR panel, SMN2 canonical junction (CJ) mRNA. In kind it is cell-based, human. Particulars: Homo sapiens, read-out: SMN2 CJ (decrease in CJ mRNA levels, IC50). The procedure, abridged:
(§6)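 A673 cells (DMEM, 10% FBS) or K562 cells (IMDM, 10% FBS) treated 24 h at 37 °C with an 11-point 3-fold dilution, top 10 uM, DMSO ≤0.25%. Canonical-junction mRNA quantified in lysates by RT-qPCR, normalised to GAPDH, GUSB or PPIA and to DMSO (2^−ΔΔCt), then converted to % response.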

The next series relates to MYB mRNA. Put plainly: Splicing RT-qPCR assay, MYB canonical (CJ) and alternative (AJ) junction mRNA. In kind it is cell-based, human. The conditions noted are these: Homo sapiens; for IC50: canonical junction mRNA; for AC50: alternative junction mRNA, read-out: MYB AJ (AC50, increase in AJ mRNA). The procedure, abridged: (§7)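 A673 or K562 cells were treated for 24 h at 37 °C with an 11-point 3-fold compound dilution series (top final 10 uM, DMSO ≤0.25%). Lysates then went to one-step TaqMan RT-qPCR quantifying canonical (CJ) and alternative-exon (AJ) junction transcripts, normalized to a housekeeping gene.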

The test system of another series is HTT mRNA. Put plainly: Splicing RT-qPCR assay, HTT canonical (CJ) and alternative (AJ) junction mRNA. Particulars: Homo sapiens; for IC50: canonical junction mRNA; for AC50: alternative junction mRNA, read-out: HTT AJ (AC50, increase in AJ mRNA). In kind it is cell-based, human. Put shortly: as §7
A further series concerns Target C mRNA. Put plainly: Splicing RT-qPCR panel, Target C canonical junction (CJ) mRNA. Particulars: Homo sapiens, read-out: Target C CJ (decrease in CJ mRNA levels, IC50). In kind it is cell-based, human. Put shortly:
as §6

Setting [1] is: qPCR panel, read-out: MYB CJ (decrease in CJ mRNA levels, IC50).
Where [2] appears, read: RT-qPCR, A673 or K562 cells, 24 hours treatment.
[3] abbreviates: RT-qPCR, A673 or K562 cells, 24 hours treatment, read-out: MYB CJ (IC50, decrease in CJ mRNA).
The mark [4] stands for this setting: 24 h, RT-qPCR, A673 or K562 cells, 24 hours treatment, read-out: HTT CJ (IC50, decrease in CJ mRNA).
[5] abbreviates: qPCR panel, read-out: HTT CJ (decrease in CJ mRNA levels, IC50).

Like-named read-outs stand apart in the source and are kept apart here.

Protocol for K562 cells: Compounds described herein were screened for toxicity in K562 (human chronic myelogenous leukemia) and SH-SY5Y (human neuroblastoma) cells using a Cell Titer Glo 2.0 assay.
• Promega CellTiter-Glo® 2.0 Cell Viability Assay (cat #G9241) • Corning 384-well TC-treated microplates (cat #3570)
Cells were plated at 500 cells/well (K562 cells) in 45 μL of IMDM supplemented with 10% FBS in a 384-well opaque plate. Wells containing only medium were used as a blank control. Test compounds (e.g., compounds of Formula (I) or (II)) were first serially diluted in DMSO then diluted 1:100 with IMDM+10% FBS. The final concentration of DMSO was 0.1% in each well. The cells were incubated for 72 hours at 37° C. and 5% CO2 before assaying with Cell Titer Glo 2.0 reagent.

Regarding `CN[C@H]1CCN(c2cnc3nc(-c4cc5cn(C)nc5c(C)c4O)ccc3c2)C1` [Compound 111], the IC50 in the series with Target C, in the series with HiBiT-tagged MYB protein and with HiBiT-tagged HTT protein was less than 0.1 µM throughout. The “Effect on Cell Viability, K562” value in the series on K562 cells was “A (<100 nM)”.

For `Cn1cc2cc(-c3cnc4cc(C5CCNCC5)ccc4n3)c(O)c(F)c2n1` [Compound 167, 7-fluoro-2-methyl-5-[6-(piperidin-4-yl)quinoxalin-2-yl]indazol-6-ol], the IC50 with Target C, in the series on HiBiT-tagged MYB protein and in the series on HiBiT-tagged HTT protein was less than 0.1 µM in each case. Also, in the series with K562 cells, the “Effect on Cell Viability, K562” value was “A (<100 nM)”.

On to `Cc1cn2cc(-c3cc(Cl)c4cc(N5C[C@H](C)NC6(CC6)C5)cnc4n3)cc(F)c2n1` [Compound 401], for which the IC50 was less than 0.1 µM in the series on SMN2 mRNA; 0.1 to 1 µM in the series on MYB mRNA (setting [1]); 0.1 to 1 µM in the series on MYB mRNA (setting [3]); 1 to 10 µM with HTT mRNA (setting [4]); 1 to 10 µM in the series with HTT mRNA (setting [5]); 1 to 10 µM with Target C mRNA. For the same compound, the AC50 was 0.1 to 1 µM in the series on MYB mRNA (setting [2]) and 1 to 10 µM in the series on HTT mRNA (setting [2]). In addition, the “Effect on Cell Viability, K562” value in the series on K562 cells is recorded as “C (1000-9999 nM)”.

For `Cc1cn2cc(-c3cc(Cl)c4cc(N5C[C@@H](C)NC6(CC6)C5)cnc4n3)cc(F)c2n1` [Compound 402], the IC50 in the series on SMN2 mRNA was less than 0.1 µM; in the series with MYB mRNA (setting [1]) it was 0.1 to 1 µM; with MYB mRNA (setting [3]), 0.1 to 1 µM; with HTT mRNA (setting [4]), more than 10 µM; in the series on HTT mRNA (setting [5]), more than 10 µM; with Target C mRNA, more than 10 µM. Besides, the results for the AC50 in the series with MYB mRNA (setting [2]) and in the series with HTT mRNA (setting [2]) were 0.1 to 1 µM and more than 10 µM, respectively. Besides, in the series with K562 cells, the “Effect on Cell Viability, K562” value is listed as “C (1000-9999 nM)”.

Take `COc1nc(-c2cc(Cl)c3cc(N4C[C@H](C)N[C@@H](C)C4)cnc3n2)cn2cc(C)nc12` [Compound 403, 4-chloro-6-[(3S,5S)-3,5-dimethylpiperazin-1-yl]-2-{8-methoxy-2-methylimidazo[1,2-a]pyrazin-6-yl}-1,8-naphthyridine]: the IC50 is 0.1 to 1 µM in the series on SMN2 mRNA; 1 to 10 µM in the series with MYB mRNA (setting [1]); 1 to 10 µM in the series with MYB mRNA (setting [3]); more than 10 µM in the series on HTT mRNA (setting [4]); more than 10 µM in the series on HTT mRNA (setting [5]); more than 10 µM in the series on Target C mRNA. In addition, the AC50 is 0.1 to 1 µM in the series on MYB mRNA (setting [2]) and more than 10 µM with HTT mRNA (setting [2]). Also, the “Effect on Cell Viability, K562” value with K562 cells is listed as “C (1000-9999 nM)”.

Consider `C[C@H]1CN(c2cnc3nc(-c4cc5cn(C)nc5cc4O)cc(Cl)c3c2)C[C@H](C)N1C` [Compound 404, 5-{4-chloro-6-[(3S,5S)-3,4,5-trimethylpiperazin-1-yl]-1,8-naphthyridin-2-yl}-2-methylindazol-6-ol], for which the IC50 in the series on SMN2 mRNA was less than 0.1 µM; in the series on MYB mRNA (setting [1]), 0.1 to 1 µM; in the series with MYB mRNA (setting [3]) it was 0.1 to 1 µM; in the series with HTT mRNA (setting [4]), 1 to 10 µM; in the series on HTT mRNA (setting [5]) it was 1 to 10 µM; in the series with Target C mRNA, 1 to 10 µM. Also, the figures for the AC50 with MYB mRNA (setting [2]) and in the series on HTT mRNA (setting [2]) were 0.1 to 1 µM and 1 to 10 µM, respectively. In addition, the “Effect on Cell Viability, K562” value in the series with K562 cells is listed as “B (100-1000 nM)”.
